The values that follow come from patent publication US20240408152A1, “NOVEL ENTEROCOCCUS FAECIUM LCM001 STRAIN, AND USE THEREOF” (MBIOMETHERAPEUTICS CO., LTD., priority 2021, published 2024).

In brackets after ≈: the same amount, converted by molar mass. Read-outs that look alike come from different tables or passages of the source.

This experiment deals with human non-small cell lung cancer (NSCLC) A549 cells. Briefly: MTT cell viability assay, lung cancer cells. It is filed as cell-based. As to the method: The human non-small cell lung cancer (NSCLC) A549 cells were cultured in RPMI 1640 culture medium supplemented with 10% fetal bovine serum (FBS) and 1% penicillin/streptomycin in a incubator at 37° C. in a 5% CO2. Human normal fibroblast lung cell Wi38 were cultured in MEM culture medium supplemented with 10% FBS and 1% penicillin/streptomycin.
The cell viability rate was measured using MTT [3-(4,5-dimethylthiazol-2-yl)-2,5-diphenyl-tetrazolium bromide] assay. Specifically, lung cancer cells (A549, 7×10^3 cells/well), colon cancer cells (HCT-15, 5×10^3 cells/well), liver cancer cells (Sk-hep-1, 5×10^3 cells/well), pancreatic cancer cells (PANC-1, 5×10^3 cells/well), and breast cancer cells (MCF-7, 2×10^3 cells/well) were seeded in a 96-well culture plate at 3 times repeatedly, and cultured overnight at 37° C. in 5% CO2 with RPMI 1640 medium containing 10% FBS. Subsequently, the cell-free supernatant was added to each well at concentrations of 1×, 2×, 5×, and 10×, with 100 μL per well, and cultured for 24 hours at 37° C. in 5% CO2.
To assess cell apoptosis, MTT reagent at a concentration of 5 mg/ml was added to each well with 10 μL per well and reacted for 4 hours at 37° C. in 5% CO2. The cells were then dissolved in dimethyl sulfoxide (DMSO, 100 μL/well), and the absorbance at 570 nm was measured using a microplate reader.
The cell viability rate was calculated as a percentage using the following formula. The cell toxicity test was conducted in triplicate, and the values are presented as mean±standard deviation.
To confirm the efficacy of Cyclo(L-pro-L-tyr), the active ingredient of Enterococcus faecium LCM001, as well as its derivatives on apoptosis of non-small cell lung cancer A549 cells, the inventors conducted an MTT assay on Cyclo(L-pro-L-tyr), Cyclo(L-Phe-L-pro), Cyclo(L-Phe-trans-4-hydroxy-L-Pro), Cyclo(L-Pro-D-Phe), and Cyclo(Tyr-Hpro), and calculated their IC50 values.

`O=C1N[C@@H](Cc2ccccc2)C(=O)N2C[C@H](O)C[C@@H]12` (relative stereo) [Cyclo(L-Phe-trans-4-hydroxy-L-Pro)]: the IC50 (as a rule, the point on the concentration scale where inhibition reaches its midpoint) worked out at 57.58 µg/mL (≈ 221 µM).
`O=C1N[C@@H](Cc2ccccc2)C(=O)N2CCC[C@@H]12` [Cyclo(L-Phe-L-pro)] registered an IC50 of 26.1 µg/mL (≈ 107 µM).
The compound `O=C1NC(Cc2ccccc2)C(=O)N2CCCC12` [Cyclo(L-Pro-D-Phe)] returned an IC50 of 94.56 µg/mL (≈ 387 µM).
For `O=C1NC(Cc2ccc(O)cc2)C(=O)N2CCC[C@@H]12` (stereo partly drawn) [Cyclo(L-pro-L-tyr), Cyclo(L-Pro-L-Tyr)], the IC50 (Homo sapiens, read-out: IC50) came to 99.6 µg/mL (≈ 382 µM).
Compound `O=C1NC(Cc2ccc(O)cc2)C(=O)N2CC(O)CC12` (centres unmarked) [Cyclo(Tyr-Hpro)] registered an IC50 of 119 µg/mL (≈ 431 µM).
